Assay results as given in patent US20220273608A1, “Methods for Treating Bone-Related Disorders” (University of Maryland, Baltimore, priority 2016, published 2022).
“Also recorded” adds a separate entry of the source. Where two headings read alike, the source gives them in different places.

Assays:
Ocy454 cells [1] = experiment: Ca2+ imaging (Fluo-4) of Ocy454 cells, with or without fluid shear stress; type: cell-based, mouse
Method: (§1) Cells in culture were exposed to fluid flow using a custom FSS device (63). Cell media was removed and cells were rinsed in HEPES-buffered Ringer solution containing 140 mM NaCl, 4 mM KCl, 1 mM MgSO4, 5 mM NaHCO3, 10 mM glucose, 1.8 mM CaCl2 and 10 mM HEPES (pH 7.3). Ringer solution was also used as fluid flow buffer. For Calcium-free conditions, HEPES-buffered Manganese Ringer solution, containing 140 mM NaCl, 4 mM KCl, 1 mM MgSO4, 5 mM NaHCO3, 10 mM glucose, 2 mM MnCI and 10 mM HEPES (pH 7.3), was used, and cells were loaded with BATPA AM ester (10 μM, 30 min). […] For Ca^2+ imaging, cells were loaded with Fluo-4 AM ester (ThermoFisher, 5 μM) for 30 min, washed, and allowed to rest for 15 min to allow dye de-esterification, as described. For ROS imaging, cells were loaded with CellROX (ThermoFisher, 5 μM) for 30 min and then washed 3 times, per the manufacturer's recommendations. Individual wells were imaged as described (39). Time-lapse fluorescence intensity measurements were collected using ImageJ Time Series Analyzer plugin and data was analyzed and plotted using Origin Pro software. Final results represent a minimum of three independent experiments performed on separate days with new cultures (n>700 cells/treatment group). All conditions were run with controls on each experimental day.

CaMKII = type: cell-based; settings: for phospho-CaMKII (CaMKII activation): independently of FSS
Method: (§2) Cells in culture were exposed to fluid flow using a custom FSS device (63). Cell media was removed and cells were rinsed in HEPES-buffered Ringer solution containing 140 mM NaCl, 4 mM KCl, 1 mM MgSO4, 5 mM NaHCO3, 10 mM glucose, 1.8 mM CaCl2 and 10 mM HEPES (pH 7.3). Ringer solution was also used as fluid flow buffer. For Calcium-free conditions, HEPES-buffered Manganese Ringer solution, containing 140 mM NaCl, 4 mM KCl, 1 mM MgSO4, 5 mM NaHCO3, 10 mM glucose, 2 mM MnCI and 10 mM HEPES (pH 7.3), was used, and cells were loaded with BATPA AM ester (10 μM, 30 min).

sclerostin [2] = experiment: Immunoblotting for sclerostin / GAPDH in Ocy454 cells; type: cell-based, mouse; settings: for sclerostin protein: independently of FSS
Method: as §2

Ocy454 cells [3] = experiment: ROS imaging (CellROX) of Ocy454 cells; type: cell-based, mouse; settings: for ROS production: no FSS, CellROX
Method: as §1

sclerostin [4] = experiment: Bone derived sclerostin in colchicine treated aged mice; type: in vivo; settings: aged mice (78 weeks), 1 mg/L colcrys in drinking water, 8 weeks
aged mice [5] = experiment: Bone formation and bone mass (DEXA, microCT) in colchicine treated aged mice; type: in vivo
aged mice [6] = experiment: Muscle testing in colchicine treated aged mice; type: in vivo; settings: 8 weeks colchicine
Method: Young and aged mice were treated with colchicine as per the bone formation study followed by euthanasia and muscle testing. After 8 weeks aged mice had increased muscle power.

aged mice [7] = experiment: White adipose tissue in colchicine treated aged mice
Ocy454 cells [8] = experiment: Immunostaining for α-tubulin (microtubule network) in Ocy454 cells; settings: α-tubulin immunofluorescence
Glu-tubulin [9] = experiment: Glu-tubulin in ex vivo murine long bone (western blot); settings: murine cortical bone ex vivo
Excerpt: The antibodies used were: sclerostin (R&D Sytems, AF1589), α-tubulin (Sigma, T9026), Glu-tubulin (Abcam, ab48389), phospho-CamK II Thr^286 (Cell Signaling Technologies, 12716S), total CaMKII (Cell Signaling Technologies, 11945S), and GAPDH (Millipore, MAB374).

Ocy454 cells [10] = experiment: Atomic force microscopy nano-indentation of Ocy454 cells; type: cell-based, mouse; settings: AFM nanoindentation, 2 h treatment
Method: Ocy454 cells were plated onto 22 mm×22 mm glass coverslips and allowed to grow for 16-24 h at 37° C., 5% CO2 with αMEM media. Thereafter, cells were washed with PBS before being incubated with pharmacological agents as indicated for 2 h at 37° C., 5% CO2 in αMEM. After each treatment, cells were transferred to 60 mm culture dishes with pre-warmed HEPES based media containing identical concentrations of the aforementioned agents. Cells were probed with an MFP-1D atomic force microscope (Asylum Research) using MLCT cantilevers (Bruker) with a nominal spring constant of k=0.01 N/m. The pull distance used was 2 μm with a tip velocity of 4 μm/s to generate ˜1-2 nN of force onto the cell corresponding to ˜1 μm indentation ensuring that the cytoskeleton was effectively being probed. The elastic moduli (stiffness) of the cells were calculated using the Sneddon Hertz model as described (66).

Glu-tubulin [11] = settings: Ocy454 cells in vitro
Excerpt: The antibodies used were: a-tubulin (Sigma, T9026), Glu-tubulin (Abcam, ab48389) and TRPV4 (Abcam, ab39260).
Western blotting of whole cell extracts isolated from cells in culture following FSS or extracts isolated from murine long bone were done. Equal amounts of protein were loaded and electrophoresed on 10% SDS-PAGE gels and transferred to polyvinylidene difluoride membranes. Membranes were blocked in 5% non-fat dry milk (unless otherwise stated), probed with the indicated primary antibodies overnight and 4° C. Antibodies were detected with the appropriate horseradish peroxidase-conjugated secondary antibodies (Cell Signaling Technology) and enhanced chemiluminescence detection reagent (Biorad). […] Blots were acquired using an EpiChem gel documentation system (UVP Bioimaging Systems) and analyzed using ImageJ software.

[12] = cells treated with H2O2, no FSS
[13] = whole body DEXA, 8 weeks colchicine

With `O=C(NC1(c2ccccc2)CC1)c1c(CN2CCC(N3CCCCC3)CC2)c(-c2cccc(C(F)(F)F)c2)nc2cc(Br)ccc12` [GSK2193874] the “% Cells Responding to FSS, Ca2+ response (mechano-sensitivity)” value (“% Cells Responding to FSS, Ca2+ response” for short) (Ocy454 cells [1]; 4 dynes/cm^2 FSS) was “statistically significant decrease”, the “Peak(ΔF/F) magnitude of Ca2+ response (mechano-responsiveness)” value (shortened to “Peak(ΔF/F) magnitude of Ca2+ response”) (Ocy454 cells [1]; 4 dynes/cm^2 FSS) was “statistically significant decrease” and the “H2O2-induced Ca2+ influx” value (Ocy454 cells [1]; [12]) was “blunted”. The “FSS-induced CaMKII phosphorylation” value (CaMKII; 4 dynes/cm^2 FSS) was “reduction”, the “FSS-induced decrease in sclerostin protein” value (“FSS-induced decrease” for short) (sclerostin [2]; 4 dynes/cm^2 FSS) was “blunted” and the “H2O2-induced ROS” value (Ocy454 cells [3]; [12]) was “without affecting”.

With `COc1cc2c(c(OC)c1OC)-c1ccc(OC)c(=O)cc1[C@@H](NC(C)=O)CC2` [colchicine] the “% Cells Responding to FSS, Ca2+ response” value (Ocy454 cells [1]; 4 dynes/cm^2 FSS) was “decreased”, the “Peak(ΔF/F) magnitude of Ca2+ response” value (Ocy454 cells [1]; 4 dynes/cm^2 FSS) was “reducing” and the “% Cells Responding to FSS, Ca2+ response” value (Ocy454 cells [1]; 16 dynes/cm^2 FSS) was “decreased”. For the same molecule, the “Peak(ΔF/F) magnitude of Ca2+ response” value (Ocy454 cells [1]; 16 dynes/cm^2 FSS) was “reducing”, the “FSS-induced CaMKII phosphorylation” value (CaMKII; 4 dynes/cm^2 FSS) was “eliminated” and the “FSS-induced decrease” value (sclerostin [2]; 4 dynes/cm^2 FSS) was “eliminated”. For the same molecule, the bone derived sclerostin (sclerostin [4]) was “decreased; also recorded: reduced”, the trabecular bone mass (aged mice [5]; 8 weeks colchicine) was “No changes were observed” and the bone accumulation (aged mice [5]; aged mice) was “increases”. The “bone formation rate (BFR) on the cortical bone perimeter” value (aged mice [5]; aged mice (78 weeks), 1 mg/L colcrys in drinking water, 8 weeks) was “increased; also recorded: improved”, the cortical bone volume (aged mice [5]; microCT, 8 weeks colchicine) was “tended towards increases” and the “polar mean moment of inertia” value (aged mice [5]; microCT, 8 weeks colchicine) was “tended towards increases”. For the same molecule, the “bone mineral content (BMC)” value (aged mice [5]; [13]) was “tended towards increases”, the “bone mineral density (BMD)” value (aged mice [5]; [13]) was “tended towards increases” and the maximum contraction velocity (aged mice [6]) was “increase”. The maximum muscle power (aged mice [6]) was “increase; also recorded: improved”, the “muscle mass in the gastrocnemius muscle” value (aged mice [6]) was “did not increase” and the “white adipose accumulation / fat mass in white adipose depots” value (aged mice [7]) was “reduced”. For the same molecule, the adipocyte area (aged mice [7]; 8 weeks colchicine) was 1441.64 μm^2, the gonadal fat (aged mice [7]; 8 weeks colchicine) was “reduced” and the inguinal fat (aged mice [7]; 8 weeks colchicine) was “reduced”. The “microtubule network density / structure” value (Ocy454 cells [8]) was “reduction”.

`CC(=O)N[C@@H](CS)C(=O)O` [NAC, N-acetylcysteine] was tested, and the “FSS-induced Ca2+ response” value (Ocy454 cells [1]; 4 dynes/cm^2 FSS) was “abrogated”, the “FSS-induced Ca2+ response” value (Ocy454 cells [1]; 16 dynes/cm^2 FSS) was “abrogated” and the “FSS-induced CaMKII phosphorylation” value (CaMKII; FSS, magnitude not stated) was “reduction”. The “FSS-induced decrease” value (sclerostin [2]; FSS, magnitude not stated) was “blunting”.

With `CC(C)C[C@H](NC(=O)c1cc2ccccc2s1)C(=O)N1CCN(C(=O)[C@H](CO)NS(=O)(=O)c2ccc(Cl)cc2Cl)CC1` [GSK-1016790A] the “phospho-CaMKII (CaMKII activation)” value (CaMKII) was “activation”, the sclerostin protein (sclerostin [2]) was “reduction” and the ROS production (Ocy454 cells [3]) was “insufficient to induce”.

For `OO` [H2O2, Hydrogen peroxide], the “intracellular Ca2+” value (Ocy454 cells [1]; no FSS, Fluo-4) was “stimulated”, the “phospho-CaMKII (CaMKII activation)” value (CaMKII) was “increased” and the sclerostin protein (sclerostin [2]) was “reduced”. The ROS production (Ocy454 cells [3]) was “stimulated”.

`CC(=O)O[C@H]1C(=O)[C@@]2(C)[C@H]([C@H](OC(=O)c3ccccc3)[C@]3(O)C[C@H](OC(=O)[C@H](O)[C@@H](NC(=O)c4ccccc4)c4ccccc4)C(C)=C1C3(C)C)[C@]1(OC(C)=O)CO[C@@H]1C[C@@H]2O` [Taxol] was tested, and the “% Cells Responding to FSS, Ca2+ response” value (Ocy454 cells [1]; 4 dynes/cm^2 FSS) was “statistically significant decrease”, the “FSS-induced Ca2+ response” value (Ocy454 cells [1]; 4 dynes/cm^2 FSS) was “blunts” and the “Peak(ΔF/F) magnitude of Ca2+ response” value (Ocy454 cells [1]; 4 dynes/cm^2 FSS) was “decrease”. The “% Cells Responding to FSS, Ca2+ response” value (Ocy454 cells [1]; 16 dynes/cm^2 FSS) was “restored”, the “Peak(ΔF/F) magnitude of Ca2+ response” value (Ocy454 cells [1]; 16 dynes/cm^2 FSS) was “restored” and the “FSS-induced CaMKII phosphorylation” value (CaMKII; 4 dynes/cm^2 FSS) was “reduced; also recorded: blunts”. For the same molecule, the “FSS-induced CaMKII phosphorylation” value (CaMKII; 16 dynes/cm^2 FSS) was “restored”, the “FSS-induced decrease” value (sclerostin [2]; 4 dynes/cm^2 FSS) was “blunts” and the “FSS-induced decrease” value (sclerostin [2]; 16 dynes/cm^2 FSS) was “restored”. For the same molecule, the “amount of Glu-tubulin” value (Glu-tubulin [9]) was “markedly increased”, the “elastic modulus (cytoskeletal stiffness)” value (Ocy454 cells [10]) was “increased” and the “amount of Glu-tubulin” value (Glu-tubulin [11]) was “markedly increased; also recorded: marked increase”. For the same molecule, the “microtubule network density / structure” value (Ocy454 cells [8]) was “increase in microtubule density”.

With `COc1ccc(S(=O)(=O)N(CCO)c2ccccc2CN(C)C/C=C/c2ccc(Cl)cc2)cc1` [KN-93] the “FSS-induced decrease” value (sclerostin [2]; 4 dynes/cm^2 FSS) was “prevented”.

For `CC(=O)OCOC(=O)CN(CC(=O)OCOC(C)=O)c1ccccc1OCCOc1ccccc1N(CC(=O)OCOC(C)=O)CC(=O)OCOC(C)=O` [BAPTA AM], the “FSS-induced CaMKII phosphorylation” value (CaMKII; 4 dynes/cm^2 FSS) was “inhibited” and the “FSS-induced decrease” value (sclerostin [2]; 4 dynes/cm^2 FSS) was “inhibited”.
